Data set [1] is described as follows: Intracoronary NAC dose escalation: ECG (QT interval, arrhythmias, heart rate).
Experimental: Accordingly, the effects of escalating doses of intracoronary NAC (Cumberland Pharmaceuticals, Nashville, Tenn.) mixed with contrast medium on blood pressure and cardiac rhythm were tested in two healthy farm raised pigs (23 and 26 kg).
The pigs were anesthetized with Isoflurane after intramuscular pre-medication with Ketamine (20 mg/kg). After endotracheal intubation they were ventilated (Harvard Apparatus, Holliston, Mass.) with a mixture of oxygen and 1-3 percent isoflurane. A surgical level of anesthesia was confirmed prior to obtaining percutaneous femoral arterial access using a 6-French sheath. A JR 4 or HS guide catheter was inserted and placed at the ostium of the left main coronary artery. Continuous twelve-lead ECG and catheter based pressures were digitally recorded with the administration of bolus injections of NAC. The initial dose was 56.6 mg of NAC diluted in 5 mL of. Iopamidol (Isovue 370®, Bracco Pharmaceuticals, Princeton, N.J.). This dose of 11.3 mg NAC/mL is referred to as the target dose because it would deliver a dose of 1850 milligrams of NAC to an average patient undergoing a percutaneous coronary intervention. […] Following at least five injections of the target dose, a total of four high dose injections were performed, two of 250 mg per 5 mL bolus and two of 500 mg NAC per 5 mL bolus (equal to 4.4× and 8.8× target dose). […] Blood pressure and QT interval were analyzed at the end of three succeeding respiratory cycles (6, 12 and 18 seconds after injection) and are reported as a mean percent change from baseline.
In the dose escalation study the effect of each injection on blood pressure and QT interval was expressed as a percentage change from the immediately preceding baseline and analyzed by a paired student's t-test. A p-value of less than 0.05 was accepted as statistically significant.
Data set [2] is described as follows: Ischemia-reperfusion model: serum creatinine. It is filed as in vivo, pig. The settings on record: for baseline creatinine level / creatinine level: serum, mean±SD; for baseline creatinine level: prior to contrast medium administration; for creatinine level: twenty four hours after ischemia-reperfusion, 200 ml contrast. An excerpt: Sedation, anesthesia and instrumentation of the pigs were accomplished in accordance to the dose escalation study. All pigs received a bolus of 2000 units of heparin sulfate after obtaining femoral artery access. A guide wire (PT2, 0.014″×185 cm, Boston Scientific, Natick, Mass.) was then advanced into the left anterior descending (LAD) coronary artery followed by inflation of a balloon (Monorail Maverick, 2.5×15 mm, Boston Scientific) in its mid-portion, just distal to the second diagonal branch. Total occlusion was confirmed by contrast injections after increasing balloon pressures in 1 atm increments. […] Throughout the experiment, the animals were monitored by continuous digital ECG recordings and guide catheter pressure recordings. Digital cineangiograpic recordings were obtained in straight anterioposterior projections. A total of 200 ml of contrast medium was administered to each animal. Approximately half of the contrast volume was used during diagnostic angiography and insertion of the guidewire into the LAD. The remaining contrast was injected after deflation of the balloon during the reperfusion period. After 20-30 minutes of reperfusion, catheter, balloon and guide wire were withdrawn. An Angio-Seal 6-French femoral artery closure device (St. Jude Medical, St. Paul, Minn.) was deployed and the Isoflurane was discontinued. After 30 minutes the ECG recording was stopped and the animals were extubated and transferred to the animal housing facility. No animal was lost during the housing period. Serum was collected prior to contrast exposure and 24 hours after infarction and analyzed for creatinine. An attempt was also made to assay Cystatin C as a second renal marker. However, Cystatin C was undetectable in pig serum.

Data set [3] relates to pig model of myocardial ischemia and reperfusion. Put plainly: Ischemia-reperfusion model: periprocedural arrhythmias (VT, VF, DCCV). As to conditions: 200 ml contrast, NAC 11.3 mg/mL. Type of data set: in vivo. The source says: (§1) Sedation, anesthesia and instrumentation of the pigs were accomplished in accordance to the dose escalation study. All pigs received a bolus of 2000 units of heparin sulfate after obtaining femoral artery access. A guide wire (PT2, 0.014″×185 cm, Boston Scientific, Natick, Mass.) was then advanced into the left anterior descending (LAD) coronary artery followed by inflation of a balloon (Monorail Maverick, 2.5×15 mm, Boston Scientific) in its mid-portion, just distal to the second diagonal branch. Total occlusion was confirmed by contrast injections after increasing balloon pressures in 1 atm increments. Total occlusion time was 60 minutes. Throughout the experiment, the animals were monitored by continuous digital ECG recordings and guide catheter pressure recordings. Digital cineangiograpic recordings were obtained in straight anterioposterior projections.
Blood pressure, heart rate, and high-resolution ECG were continuously recorded beginning at the time of coronary occlusion and for 30 minutes following reperfusion. The occurrence of ventricular tachycardia during coronary occlusion or reperfusion (defined as more than 4 consecutive ventricular ectopic beats) and ventricular fibrillation were recorded. […] (DCCV) was provided for ventricular fibrillation and ventricular tachycardia with hemodynamic instability. No antiarrhythmic medications were used.

For another data set, the system named is myocyte nuclei. Put plainly: Ischemia-reperfusion model: TUNEL assay for apoptosis in myocardium. Type of data set: in vivo, pig. The settings on record: for nuclei stained positive for apoptosis (TUNEL): infarct tissue; for nuclei stained positive for apoptosis (TUNEL) / nuclei stained TUNEL positive: mean±SD; for nuclei stained TUNEL positive: non-infarcted area at risk. The source says: Sedation, anesthesia and instrumentation of the pigs were accomplished in accordance to the dose escalation study. All pigs received a bolus of 2000 units of heparin sulfate after obtaining femoral artery access. A guide wire (PT2, 0.014″×185 cm, Boston Scientific, Natick, Mass.) was then advanced into the left anterior descending (LAD) coronary artery followed by inflation of a balloon (Monorail Maverick, 2.5×15 mm, Boston Scientific) in its mid-portion, just distal to the second diagonal branch. Total occlusion was confirmed by contrast injections after increasing balloon pressures in 1 atm increments. Total occlusion time was 60 minutes. Throughout the experiment, the animals were monitored by continuous digital ECG recordings and guide catheter pressure recordings. Digital cineangiograpic recordings were obtained in straight anterioposterior projections. TUNEL assays were performed on samples from […] area at risk and infarcted tissue to investigate if NAC reduces ischemia-reperfusion induced apoptosis. A total of four samples from two control animals and six samples from three NAC treated animals were analyzed. Tissue sections were deparaffinized and permeabilized with proteinase K (25 μg/ml in 100 mM Tris.HCl). An in situ apoptotic cell death detection kit (TMR red; Roche Applied Bio Sciences, Indianapolis, Ind.) based on the TUNEL assay was used to detect apoptotic cells. Sections were mounted with Vectashield mounting medium containing 4′,6-diamidino-2-phenylindole (DAPI; Vector Laboratories, Burlingame, Calif.) as a nuclear counterstain. Sections were examined with a Zeiss Axiovert 200 microscope and Zeiss LSM 510 META laser scanning confocal microscope. The percentage of apoptotic nuclei per section was calculated by counting the total number of TUNEL-staining nuclei divided by the total number of DAPI-positive nuclei in 10 randomly selected fields at ×40 magnification (14).

Data set [4] concerns pig model of myocardial ischemia and reperfusion. Put plainly: Ischemia-reperfusion model: area at risk and infarct size (Evans Blue / TTC staining). Type of data set: in vivo. The settings on record: for area at risk as a percentage of ventricular myocardium / infarct size as a percentage of the area at risk / infarct size as percent of ventricular myocardium (TTC staining): 60 min LAD occlusion, 24 h reperfusion, 200 ml contrast, NAC 11.3 mg/mL, n=5, mean±SD. The source says: Sedation, anesthesia and instrumentation of the pigs were accomplished in accordance to the dose escalation study. All pigs received a bolus of 2000 units of heparin sulfate after obtaining femoral artery access. A guide wire (PT2, 0.014″×185 cm, Boston Scientific, Natick, Mass.) was then advanced into the left anterior descending (LAD) coronary artery followed by inflation of a balloon (Monorail Maverick, 2.5×15 mm, Boston Scientific) in its mid-portion, just distal to the second diagonal branch. Total occlusion was confirmed by contrast injections after increasing balloon pressures in 1 atm increments. Total occlusion time was 60 minutes. Throughout the experiment, the animals were monitored by continuous digital ECG recordings and guide catheter pressure recordings. Digital cineangiograpic recordings were obtained in straight anterioposterior projections. A total of 200 ml of contrast medium was administered to each animal. Approximately half of the contrast volume was used during diagnostic angiography and insertion of the guidewire into the LAD. The remaining contrast was injected after deflation of the balloon during the reperfusion period. After 20-30 minutes of reperfusion, catheter, balloon and guide wire were withdrawn. An Angio-Seal 6-French femoral artery closure device (St. Jude Medical, St. Paul, Minn.) was deployed and the Isoflurane was discontinued. After 30 minutes the ECG recording was stopped and the animals were extubated and transferred to the animal housing facility. No animal was lost during the housing period. Twenty four hours later the animals were sedated and intubated. The thoracic cavity was opened by a midline sternotomy and ligatures were placed at the site of the proximal balloon occlusion, the aortic arch branches and the descending aorta. The right carotid artery was cannulated and a plastic catheter advanced into the aortic root. […] The vessels were occluded in the following order: LAD, aortic arch branches and descending aorta. The dye was then injected at a perfusion pressure of 120 mmHg until the myocardium was stained. […] In the NAC group two animals could not be used for the myocardial infarction analysis (insufficient Evans Blue staining, unsuccessful electrical cardioversion). Evans Blue stained hearts were harvested and the atria were removed. The ventricles were sliced into one centimeter slices in a bread loaf fashion, with the first slice at the apex. At least five slices could be obtained in all hearts. The basal surfaces of the slices were sequentially imaged. Small samples of myocardium from areas of necrosis, area at risk and normal left ventricular myocardium were obtained from the apical side of the second and third slice and stored for additional analyses. […] The basal surfaces were then re-imaged. Area analysis (planimetry) was performed with the NIH-Image program (Scion Image Version 4.0.2). The size of the area at risk and infarct size for each slice was determined by multiplying the mass of the slice by the fraction of area at risk or by the fraction of area of infarction. Total infarct size and the area at risk size were expressed as a percentage of biventricular mass to account for the anterior right ventricular infarction.

The test system is the same in data set [5]. Put plainly: Ischemia-reperfusion model: infarct morphology (circumference/area index). Type of data set: in vivo. The settings on record: for morphologic appearance of the infarcted area: TTC stained sections.
Text: as §1, with “projections. In order to quantify visual differences in infarct morphology, a circumference/area index of the infarcted myocardium using TTC stained sections was calculated.” for “projections.”

Where [6] appears, read: 250 mg NAC per 5 mL bolus, six seconds.
Setting [7] is: 500 mg NAC per 5 mL bolus, six seconds.
[8] abbreviates: 5 ml contrast with target dose NAC 11.3 mg/mL, 6 seconds after injection.
The mark [9] stands for this setting: target dose NAC 11.3 mg/mL, 18 seconds after injection.

Like-named read-outs stand apart in the source and are kept apart here.

With `CC(=O)N[C@@H](CS)C(=O)O` [NAC, N-acetylcysteine], the QT interval prolongation result in data set [1] (250 mg NAC bolus, 18 seconds) is recorded as “normalized”. The QT interval prolongation in data set [1] (250 mg NAC bolus, immediately after injection) is listed as 16%. Besides, in data set [1] (500 mg NAC bolus), the “time to complete recovery of QT interval to baseline” value fell in the range of 45 to 60 s. Moreover, the QT interval prolongation in data set [1] (500 mg NAC bolus, 18 seconds) was 9%. Also, in data set [1] (500 mg NAC bolus, immediately after injection), the QT interval prolongation turned out to be 35%. Also, in data set [1] (healthy pigs, intracoronary bolus injections), the “arrhythmias or changes in heart rate after injections of contrast containing NAC” value is “did not cause any arrhythmias or changes in heart rate”. In data set [1] (target dose 11.3 mg/mL, eighteen seconds after injection), the QT interval prolongation result is “significant QT prolongation was no longer present”. For the same compound, in data set [1] (target dose 11.3 mg/mL, six seconds after injection), the QT interval prolongation is recorded as 10%. Moreover, under setting [6], the “reduction of diastolic blood pressure” value was found to be 26% and the “reduction of systolic blood pressure” value is on record as 14%. Besides, the “time to recovery of diastolic pressures” value (250 mg and 500 mg bolus) was 45 to 60 s. For the setting “250 mg and 500 mg bolus, after 18 seconds”, the systolic blood pressure result is recorded as “normalized”. Besides, under setting [7], the “reduction of diastolic blood pressure” value was 43% and the “reduction of systolic blood pressure” value came to 48%. For the same compound, under setting [8], the “reduction in diastolic blood pressure” value was determined as 17% and the “reduction of systolic blood pressure” value turned out to be 5%. The “time to complete normalization of blood pressure” value (target dose NAC 11.3 mg/mL) is 45 to 60 s. Under setting [9], the “decrease in diastolic pressure” value is “about 7%” and the systolic pressure entry is on record as “returned to pre-injection pressures”. Moreover, the “reduction of the rise in post procedure creatinine levels” value in data set [2] (NAC provided during contrast administration vs contrast-only) is “about 60%”. In data set [2], this compound displayed a baseline creatinine level of 1.29 ± 0.15 mg/dL and a creatinine level of 1.49 ± 0.06 mg/dL. Besides, the “ventricular arrhythmias during ischemia-reperfusion” value in data set [3] is “developed ventricular tachycardia, fibrillation or both”. In addition, in the data set on myocyte nuclei, the “nuclei stained positive for apoptosis (TUNEL)” value turned out to be 33.0±3.7% and the “nuclei stained TUNEL positive” value stood at 1.6±1.6%. In addition, in the data set on myocyte nuclei (non-ischemic myocardium (non-LAD territories), NAC treated vs control), the “TUNEL positive myocyte nuclei” value is listed as “without a significant difference”. In data set [4], the “area at risk as a percentage of ventricular myocardium” value came out at 18.4±1.8%, the “infarct size as a percentage of the area at risk” value was determined as 44.7±12.4% and the “infarct size as percent of ventricular myocardium (TTC staining)” value worked out at 8.2±2.3%. Further, the “reduction in infarct size” value in data set [4] (NAC-contrast vs contrast-only) is listed as “approximately 50%”. For the same compound, in data set [5], the “morphologic appearance of the infarcted area” value is given as “mottled appearance”. Moreover, in data set [5] (compared with control animals), the “ratio of infarct circumference to infarct area” value is on record as “greater”.

As for `C[C@H](O)C(=O)Nc1c(I)c(C(=O)NC(CO)CO)c(I)c(C(=O)NC(CO)CO)c1I` [Iopamidol], the QT changes entry in data set [1] (contrast injections without NAC) is given as “No significant QT changes”. The “blood pressure effects of control injections” value (contrast only, intracoronary injection) is “did not show such effects”. In addition, the “increase in creatinine levels” value in data set [2] (200 ml of contrast without periprocedural hydration, 24 h) was determined as 37%. In data set [2], this compound displayed a baseline creatinine level of 1.32 ± 0.26 mg/dL and a creatinine level of 1.82 ± 0.24 mg/dL. Also, in data set [3], the “ventricular arrhythmias during ischemia-reperfusion” value is “none of the control ischemia-reperfusion animals developed ventricular fibrillation or required DCCV”. Moreover, in the data set on myocyte nuclei, the “nuclei stained positive for apoptosis (TUNEL)” value was determined as 35.8±5.7% and the “nuclei stained TUNEL positive” value was found to be 32.1±4.0%. Moreover, in data set [4], the “area at risk as a percentage of ventricular myocardium” value is listed as 15.1±4.8%, the “infarct size as a percentage of the area at risk” value is on record as 92.4±6.3% and the “infarct size as percent of ventricular myocardium (TTC staining)” value worked out at 13.9±4.5%. Further, the “morphologic appearance of the infarcted area” value in data set [5] is recorded as “homogeneous with discrete borders”.
